One data set concerns Staphylococcus aureus. Briefly: Inhibition of bacteria in BkERF transformed B. kaoi cells. The settings on record: 6 days after infection, transformed B. kaoi cells overexpressing the gene. The format is cell-based. The source says: (§1) The BkERF1, BkERF2.1, and BkERF2.2 genes are SEQ ID NO. 3, SEQ ID NO. 1 and SEQ ID NO. 2 respectively. The coding region of BkERFs was cloned into the multiple cloning site of the binary vector under the CaMV 35S promoter and the nopaline synthase termination sequence. The resulting vector was introduced into the Agrobacterium tumefaciens which was introduced into the cells of B. kaoi. The B. kaoi cells overexpressed BkERFs genes were observed using Western blot.
(§2) Bacteria suspension of a concentration about 10^8 cfu/ml was made from bacteria cultured 1-2 days with culture medium, and inoculated to 0.2 g BkERF transformed calli then grown in a 25° C. incubator. After six days, the calli was homogenized in 10 mM magnesium sulfate. Serial dilution of the bacteria was prepared and spread on nutrient agar plate containing 50 mg/L rifampicin. The plates were put in a 28° C. incubator for two days and then the numbers of bacteria were calculated.

The test system of the next data set is Psudomonas syringe. The description is as above. The format is cell-based. The settings on record: 6 days after infection, transformed B. kaoi cells overexpressing the gene.
Source text: as §1, §2

Turning to “ERF2.2: B. kaoi ethylene response factor gene, ORF of 702 bp encoding 233 amino acids, overexpressed via binary vector”, the “Growth of bacteria in the transformed cells (bacterial numbers)” value (shortened to “Growth of bacteria”) in the data set on Staphylococcus aureus and in the data set with Psudomonas syringe was “inhibited” in each case.

For “ERF2.1: B. kaoi ethylene response factor gene, ORF of 693 bp encoding 230 amino acids, overexpressed via binary vector”, the “Growth of bacteria” value in the data set with Staphylococcus aureus and in the data set on Psudomonas syringe was “inhibited” in each case.

For “ERF1: B. kaoi ethylene response factor gene, ORF of 633 bp encoding 210 amino acids, overexpressed via binary vector”, the “Growth of bacteria” value with Staphylococcus aureus and with Psudomonas syringe was “inhibited” each time.

(Values after patent US8222487B2, “Application of ERF genes from Bupleurum kaoi” (National Tsing Hua University, priority 2009, dated 2012).)
